In patent US11541049B2, “Tetrahydroisoquinoline derivatives, preparation process and use thereof” (SICHUAN KELUN-BIOTECH BIOPHARMACEUTICAL CO., LTD., priority 2018, dated 2023):
Converted amounts (≈) assume the structure as drawn.

Tests used:
SD rats = assay: Single dose toxicity study in SD rats, intravenous infusion; settings: 50, 75, 100, 150, 200 mg/kg, intravenous infusion (2 ml/min)
Description: The clinical observation was carried out for 7 days after a single dose, and the body weight of the animals were measured. On the 8th day, blood samples were taken after anesthesia for detection of hematology, blood biochemistry, coagulation and other indicators. Observation was also conducted by gross anatomy.

[1] = Solubility test in pH 7.4 buffer; assay type: physicochemical; settings: buffer (pH 7.4), aqueous buffer, thermodynamic from solid, 25° C.
Description: The test compound was dissolved in a buffer (pH 7.4) at room temperature until the solution reached supersaturation. The solution was shaken at 25° C. by a constant temperature mixer for 4 hours, filtered through a 0.45 μm aqueous membrane filter, and the concentration was measured by UPLC. 1 mg of the test compound was accurately weighed, and dissolved in 10 mL volumetric flask as the reference substance. The reference substance was measured using the same process. The solubility of the test compound was calculated according to external standard process, and the results are shown in table 4.

[2] = molecular target: human coagulation factor Xa (Homo sapiens (Human), UniProt P00742); assay: Determination of inhibition of factor Xa; assay type: biochemical
Description: Enzyme: human coagulation factor Xa; manufacturer: R&D System;
Substrate: Mca-RPKPVE-Nval-WRK(Dnp)-NH2; manufacturer: R&D;
The test compounds were dissolved in assay buffer (50 mM Tris, 150 mM NaCl, 10 mM CaCl2, 0.05% Brij35, pH 7.5) at a final concentration of 10 μM and 1 μM. Coagulation factor Xa and test compound were added to the well plate, and incubation was conducted at room temperature for 10 minutes after mixed thoroughly. The substrate (Mca-RPKPVE-Nval-WRK(Dnp)-NH2) was added to initiate the reaction. For reading fluorescence signal value, enzyme kinetic mode was used. The wavelength of excitation light was 320 nm, and the wavelength of emission light was 400 nm. The IC50 was calculated in a manner similar to experimental Example 1.

Sequence of human coagulation factor Xa (P00742 whole entry, looked up): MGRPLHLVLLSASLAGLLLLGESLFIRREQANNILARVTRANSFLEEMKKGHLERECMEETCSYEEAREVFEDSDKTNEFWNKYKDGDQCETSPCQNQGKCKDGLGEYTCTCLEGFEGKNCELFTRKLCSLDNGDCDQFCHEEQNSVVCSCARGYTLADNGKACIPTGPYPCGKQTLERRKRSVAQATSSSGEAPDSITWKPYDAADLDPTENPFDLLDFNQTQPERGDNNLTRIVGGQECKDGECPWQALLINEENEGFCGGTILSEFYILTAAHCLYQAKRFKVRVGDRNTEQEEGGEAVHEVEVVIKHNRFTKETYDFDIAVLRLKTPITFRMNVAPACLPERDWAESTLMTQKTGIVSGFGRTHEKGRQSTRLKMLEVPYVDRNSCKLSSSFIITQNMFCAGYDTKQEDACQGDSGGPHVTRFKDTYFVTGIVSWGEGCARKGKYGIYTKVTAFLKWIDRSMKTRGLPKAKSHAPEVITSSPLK
Sequence of human coagulation factor Xa (P00742 whole entry, looked up): as above

SMILES: N[C@@H](CCCCNC(=O)CN1CC=C(c2cccc3c2CCN(C(=O)[C@H]2CC(c4cccc(Cl)c4F)=NO2)[C@@H]3C(=O)Nc2ccc(C(=O)O)cc2)CC1)C(=O)O [Example 5, 4-((S)-5-(1-(2-(((S)-5-amino-5-carboxypentyl)amino)-2-oxoethyl)-1,2,3,6-tetrahydropyridin-4-yl)-2-((R)-3-(3-chloro-2-fluorophenyl)-4,5-dihydroisoxazole-5-carbonyl)-1,2,3,4-tetrahydroisoquinoline-1-carboxamido)benzoic acid]
- Single dose toxicity study in SD rats: observation (SD rats): No abnormality was found
- solubility at 4 h [1]: 10.8 mg/mL (≈ 13.7 mM)
- inhibitory effect on coagulation factor Xa (in words) [2]: no significant inhibitory effect
- IC50 ([2]; tested at final concentration of 10 μM and 1 μM): ~10 µM
